Experimental data as given in patent publication US10821079B2, “PKC activators and combinations thereof” (Cognitive Research Enterprises, Inc., priority 2011, dated 2020).

Assays:
[1] = target: T1, PKC-α-RACK1 (Homo sapiens, UniProt P17252); type: cell-based
T1 construct: host or cells: SH-SY5Y neuroblastoma cells
Protocol: (§1) Cells were grown in two chambered slides (Nunc, USA) at low density. For immunofluorescence staining, the cells were washed with PBS (pH 7.4) and fixed with 4% paraformaldehyde for 4 min. Following fixation, the cells were blocked and permeabilized with 5% serum and 0.3% Triton X 100 in 1×PBS for 30 min. The cells were washed three times with 1×PBS and incubated with primary antibodies for 1 hr at 1:100 dilution. The incubation slides were then washed again three times in 1×PBS and were incubated with the FITC anti-rabbit IgG and Rhodamine anti-mouse IgG for 1 hr at 1:400 dilution. The cells were further washed and treated with DAPI (4′,6-diamidino-2′-phenylindole, dihydrochloride) (Thermo Scientific, USA) to stain the nucleus. Finally, the slides were washed and mounted in Pro Long Gold antifade mounting solution (Invitrogen, USA) and were viewed under the LSM 710 Meta confocal microscope (Zeiss) at 350 nm, 490 nm, and 540 nm excitation and 470 nm, 525 nm, and 625 nm emission for DAPI, FITC, and Rhodamine respectively. Six individual fields at 63× oil lens magnification were analyzed for the mean fluorescence intensity (MFI) in each channel. The co-localization correlation generated by the ZEN software (Zeiss).
Coimmunoprecipitation was done following protocol described Besson et al. with slight modification. See Besson et al. (2002) J Biol Chem 277, 22073-22084. […]

[2] = rats; cited from earlier work
[3] = cited from earlier work
[4] = tested on: rat hippocampal primary neurons; assay: Synaptic marker immunofluorescence in rat hippocampal primary neurons; type: cell-based; conditions: 50 nM ASPD alone (ASPD) or with 100 nM DCPLA-ME, 20 hr
Protocol: as §1
To estimate the synaptic damage caused by the ASPDs on primary hippocampal neurons, the expression of synaptophysin (a presynaptic marker) and PSD-95 (a postsynaptic marker) was measured by immunofluorescence staining. […] Following a 20 hr incubation period, the cells were stained for nucleus, PSD-95, and synaptophysin. Expression levels were calculated as the change of percentage in mean fluorescence intensity compared to untreated cells.
Primary neurons, treated and untreated, were immunostained for MAP-2, synaptophysin, and PSD-95 to determine the synaptic integrity. […] Following a 20 hr incubation period, the cells were stained for MAP-2, PSD-95, and synaptophysin as described above.

[5] = tested on: synaptophysin; assay: Synaptophysin Western Blot in primary rat hippocampal neurons; type: cell-based; conditions: ASPD + DCPLA-ME
Protocol: Cells were harvested in homogenizing buffer containing 10 mM Tris-Cl (pH 7.4), 1 mM PMSF (phenylmethylsulfonyl fluoride), 1 mM EGTA, 1 mM EDTA, 50 mM NaF, and 20 μM leupeptin and were lysed by sonication. The homogenate was centrifuged at 100,000×g for 15 min at 4° C. to obtain the cytosolic fraction (supernatant) and membrane (pellet). The pellet was resuspended in the homogenizing buffer by sonication. Protein concentration was measured using the Coomassie Plus (Bradford) Protein Assay kit (Pierce, USA). Following quantification, 20 μg of protein from each sample was subjected to SDS-PAGE analysis in 4-20% gradient Tris-Glycine gel (Invitrogen, USA). The separated protein was then transferred to nitrocellulose membrane. The membrane was blocked with BSA at room temperature for 15 min and was incubated with primary antibody over night at 4° C. After the incubation, it was washed three times with TBS-T (Tris Buffered saline-Tween 20) and further incubated with alkaline phosphatase conjugated secondary antibody (Jackson Immunoresearch Laboratories, USA) at 1:10,000 dilution for 45 min. The membrane was finally washed three times with TBS-T and developed using the 1-step NBT-BCIP substrate (Pierce, USA). Western Blot was imaged in the ImageQuant RT-ECL (GE Life Sciences, Piscataway, N.J.) and densitometric quantification was performed using the IMAL software (Blanchette Rockefeller Neurosciences Institute, Morgantown, W. Va.). For translocation assays, PKC activation was represented as the percentage of total protein in the membrane (membrane/cytosol+membrane).

[6] = tested on: GSK-3β; assay: Phospho GSK-3β (Ser-9) Western Blot in ASPD treated primary neurons; type: cell-based, rat; conditions: 50 nM ASPD + 100 nM DCPLA-ME
From the text: Phospho GSK-3β expression was normalized against total GSK-3β expression. […] Data are represented as mean±SEM. (Student's t test *. p<0.05; and **, p<0.005 n=3).
Since GSK-3β is a key enzyme in the production of hyperphosphorylated tau protein, and phosphorylation of the Ser-9 residue causes GSK-3β inhibition, increasing phosphorylation of GSK-3β at Ser-9 by PKC could also enhance the protective effect of DCPLA-ME.

SMILES: CCC/C=C/C=C/C(=O)O[C@H]1/C(=C/C(=O)OC)C[C@H]2C[C@H]([C@@H](C)O)OC(=O)C[C@H](O)C[C@@H]3C[C@H](OC(C)=O)C(C)(C)C(O)(C[C@@H]4C/C(=C/C(=O)OC)C[C@H](/C=C/C(C)(C)[C@]1(O)O2)O4)O3 [Bryostatin-1]
- PKC-α-RACK1 interaction by RACK1 immunoprecipitation (in words) [1]: increased at 15 min but decreased below the control level at 30 min
- colocalization correlation R [1]: 0.58
- acute LD50 [2]: 0.068 mg/kg
- toxicity ([3]; at 20 μg/week): no toxicity
- dose that may be associated with muscle pain ([3]; in vivo): more than 35 μg/week

SMILES: CCCCCC1CC1CC1CC1CCCCCCCC(=O)OC (stereo not shown) [DCPLA-ME, methyl 8-(2-((2-pentylcyclopropyl)methyl)cyclopropyl)octanoate]
- MAP-2 expression (mean fluorescence intensity) [4]: 68.87±2.0%
- PSD-95 expression (mean fluorescence intensity) [4]: 99.2±11.3%
- synaptophysin expression (mean fluorescence intensity) [4]: 87.48±3.75%
- synaptophysin expression by Western Blot (in words) [5]: maintained the expression similar to control
- phosphorylation of Ser-9 of GSK-3β (in words) [6]: restored phosphorylation of the Ser-9 residue of GSK-3β to normal levels
